Values of other authors in US20070015686A1, “Dietary supplement for enhancing skeletal muscle mass, decreasing muscle protein degradation, downregulation of muscle catabolism pathways, and decreasing catabolism of muscle cells” (priority 2005, published 2007).
Blank lines part the entries; values can stand above or below the molecule they belong to.

How the values were obtained:
[1] = target: T1, chymotrypsin-like activity of the proteasome complex (Homo sapiens, UniProt P28074); conditions: in vitro and in vivo; concentrations found in the serum of green tea drinkers
T1 sequence (P28074 60-263): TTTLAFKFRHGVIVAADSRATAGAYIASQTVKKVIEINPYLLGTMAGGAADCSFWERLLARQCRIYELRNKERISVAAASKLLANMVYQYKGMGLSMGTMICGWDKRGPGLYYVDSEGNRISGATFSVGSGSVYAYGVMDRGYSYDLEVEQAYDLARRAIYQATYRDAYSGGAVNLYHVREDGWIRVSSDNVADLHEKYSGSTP

[2] = laboratory tests; greater than vitamin C and vitamin E
[3] = ingestion of a concomitant carbohydrate
NF-κβ = conditions: following administration, during inflammation and infection

inhibition of the chymotrypsin-like activity of the proteasome complex [1]: potent specific inhibitors
Structure (SMILES): O=C(O[C@@H]1Cc2c(O)cc(O)cc2O[C@@H]1c1cc(O)c(O)c(O)c1)c1cc(O)c(O)c(O)c1 [EGCG, epigallocatechin gallate]
antioxidant activity [2]: potent antioxidant activity

Creatine retention, increased efficiency [3]: up to 60%
Structure (SMILES): CN(CC(=O)O)C(=N)N [Creatine, N-methyl-N-guanyl Glycine]

inhibition of the chymotrypsin-like activity of the proteasome complex [1]: potent specific inhibitors
Structure (SMILES): O=C(O[C@@H]1Cc2c(O)cc(O)cc2O[C@@H]1c1ccc(O)c(O)c1)c1cc(O)c(O)c(O)c1 [ECG, epicatechin gallate]

inhibition of the chymotrypsin-like activity of the proteasome complex [1]: potent specific inhibitors
Structure (SMILES): O=C(OC[C@H]1O[C@@H](OC(=O)c2cc(O)c(O)c(OC(=O)c3cc(O)c(O)c(O)c3)c2)[C@H](OC(=O)c2cc(O)c(O)c(OC(=O)c3cc(O)c(O)c(O)c3)c2)[C@@H](OC(=O)c2cc(O)c(O)c(OC(=O)c3cc(O)c(O)c(O)c3)c2)[C@@H]1OC(=O)c1cc(O)c(O)c(OC(=O)c2cc(O)c(O)c(O)c2)c1)c1cc(O)c(O)c(OC(=O)c2cc(O)c(O)c(O)c2)c1 [tannic acid]

Structure (SMILES): CC1=C(/C=C/C(C)=C/C=C/C(C)=C/C=C/C=C(C)/C=C/C=C(C)/C=C/C2=C(C)C(=O)[C@@H](O)CC2(C)C)C(C)(C)C[C@H](O)C1=O [astaxanthin]
NF-κβ activation / nuclear translocation (NF-κβ): decreased NF-κβ activation

Structure (SMILES): CC(C)=C[C@H]1C[C@](O)([C@H]2CC[C@]3(C)[C@H]2CCC2[C@@]4(C)CC[C@H](O[C@@H]5OC[C@@H](O)[C@H](O[C@@H]6O[C@H](CO)[C@@H](O)[C@H](O)[C@H]6O)[C@@H]5O[C@H]5O[C@H](C)[C@@H](O)[C@H](O)[C@@H]5O)C(C)(C)C4CC[C@]23C)[C@H](O)O1 (stereo partly shown) [phanoside]
insulin-releasing activity (pancreatic β-cells): potent insulin-releasing activity
